Reference: PMC10291549, “Reaction Behavior of [1,3-Diethyl-4,5-diphenyl-1H-imidazol-2-ylidene] Containing Gold(I/III) Complexes against Ingredients of the Cell Culture Medium and the Meaning on the Potential Use for Cancer Eradication Therapy” (Journal of Medicinal Chemistry, 2023)

What was measured:
[1] = HPLC reactivity study in chloride containing ACN/water; assay type: physicochemical; details: t24h; chloride containing ACN/water 50/50; 0.5 mM
[2] = tested on: A2780cis cells (Cisplatin-resistant); assay type: cell-based, human; details: 72 h incubation; mean ± SD of two or three independent experiments; read-out: metabolic activity IC50, A2780cis
[3] = HPLC reactivity study with NADPH; assay type: physicochemical; details: 24 h
Procedure: (§1) GSH caused only substitution reactions, without reduction of Au(I) to Au(0). […] Neither reduction to gold(0), release of the NHC ligand, nor coordination to the gold(I) center occurred.
(§2) Experiments in ACN/water: 1.0 mM solutions of the respective complex were prepared in ACN and diluted with HPLC-grade water (50/50, (v/v)) containing the double-concentrated amount of respective amino acid (20 mM), GSH (20 mM), sodium ascorbate (20 mM), or NADPH (20 mM). As a chloride source, an aqueous solution of KCl 0.8 g/L and NaCl 12 g/L was used. In each case, a final complex concentration of 0.5 mM was achieved. The solutions were incubated for 24 h at rt. For the experiments with RPMI 1640, the aqueous phase was replaced by a cell culture medium.
(§3) Samples (20 μL each) were taken at appropriate time points (t = 0 (1.5 min), 0.5, 1, 1.5, 2, 8, 12, and 24 h) and analyzed with a Shimadzu prominence HPLC system. The mobile phase consisted of ACN (HPLC-grade) and water (HPLC-grade) with 0.1% TFA. To achieve a separation of the compounds, gradient elution from (70/30 (v/v) to 90/10 (v/v)) of ACN/water (0.1% trifluoroacetic acid (TFA)) was used with a flow rate of 1 mL/min at an oven temperature of 35 °C. All solvents have been degassed before use. The injection volume was 20 μL, and the detection wavelength was set at 235 nm, to detect the gold complexes and the amino acids in the chromatogram.

[4] = tested on: A549-R cells (Taxol/Paclitaxel-resistant subclone); assay type: cell-based; details: 72 h incubation; mean ± SD of two or three independent experiments; read-out: metabolic activity IC50, A549-R
[5] = tested on: IGROV1 cells; assay type: cell-based; details: 72 h incubation; mean ± SD of two or three independent experiments; read-out: metabolic activity IC50, IGROV1
[6] = tested on: A549 cells; assay type: cell-based; details: 72 h incubation; mean ± SD of two or three independent experiments; read-out: metabolic activity IC50, A549
[7] = tested on: K562 cells; assay type: cell-based; details: 72 h incubation; mean ± SD of two or three independent experiments; read-out: metabolic activity IC50, K562
[8] = tested on: IGROV1-CSC cells; assay type: cell-based; details: 72 h incubation; mean ± SD of two or three independent experiments; read-out: metabolic activity IC50, IGROV1-CSC
[9] = tested on: A2780 cells; assay type: cell-based, human; details: 72 h incubation; mean ± SD of two or three independent experiments; read-out: metabolic activity IC50, A2780
[10] = tested on: K562-R cells (Doxorubicin-resistant subclone); assay type: cell-based; details: 72 h incubation; mean ± SD of two or three independent experiments; read-out: metabolic activity IC50, K562-R
[11] = HPLC reactivity study with GSH in ACN/water; assay type: physicochemical; details: t0h (1.5 min); 20 equiv GSH; ACN/water 50/50; 0.5 mM
Procedure: All nucleophiles (chloride, amino acids, and GSH) were separately reacted with 5–11 in ACN/water = 50/50 (v/v) mixtures at a complex concentration 0.5 mM. This solvent composition was chosen to prevent precipitation of the complex and the formed degradation products.
Amino acids, as well as GSH, were used in 20-fold excess, as realized at a complex concentration of 10 μM in the cell culture medium. Thereto, the respective complex, dissolved in ACN (1 mM), was combined with the same amount of aqueous solution of the nucleophile (20 mM).
The mixture was then incubated for 24 h at rt and monitored at various time points via HPLC using an RP-C18 column and gradient elution (70/30 (v/v) to 90/10 (v/v)) of ACN/water (0.1% trifluoroacetic acid (TFA)).
as §2, §3

[12] = tested on: SV-80 lung fibroblast cells; experiment: Modified MTT assay in noncancerous cells; assay type: cell-based; details: at 10 μM; mean of three independent experiments
[13] = tested on: MCF-7 cells; assay type: cell-based, human; details: 72 h incubation; mean ± SD of two or three independent experiments; read-out: metabolic activity IC50, MCF-7
[14] = HPLC reactivity study with sodium ascorbate; assay type: physicochemical; details: 24 h
Procedure: as §1, §2, §3

[15] = tested on: MCF-7TamR cells (Tamoxifen-resistant subline); assay type: cell-based, human; details: 72 h incubation; mean ± SD of two or three independent experiments; read-out: metabolic activity IC50, MCF-7TamR
[16] = HPLC degradation study in ACN/RPMI 1640 cell culture medium; details: t24h; ACN/RPMI 1640 50/50; 0.5 mM
[17] = HPLC control experiment with GSH in PBS; assay type: physicochemical; details: 20 equiv GSH in PBS
Procedure: The reduced transformation (compared to the direct reaction with GSH) might be the consequence of the high chloride concentration in the medium. To confirm this assumption, 5 was incubated in a control experiment with 20 equiv of GSH (as described above) in phosphate buffered saline (PBS). At t0h, 65.7% of 12 was formed. The amount increased during 24 h to 68.0% of 12 and 2.1% of 8 appeared (Figure S33).
as §2, §3

Chlorido[1,3-diethyl-4,5-diphenyl-1H-imidazol-2-ylidene]gold(I) [Complex 5]
formation of 8 (ligand scrambling / reduction) [1]: 0.9%
IC50 [2]: 4.08 ± 0.8 µM
ligand scrambling to 8 [3]: 5.6%
IC50 [4]: > 10 µM
IC50 [5]: 7.53 ± 1.9 µM
IC50 [6]: > 10 µM
IC50 [7]: > 10 µM
IC50 [8]: 9.18 ± 1.32 µM
IC50 [9]: 9.45 ± 0.96 µM
IC50 [10]: > 10 µM
substitution to (NHC)Au(I)-GSH adduct 12 [11]: quantitatively
metabolic activity (remaining) in SV-80 cells [12]: 64%
IC50 [13]: 5.76 ± 0.88 µM
ligand scrambling to 8 [14]: 3.4%
IC50 [15]: 4.95 ± 0.39 µM
formation of 8 [16]: 6.2%
formation of GSH-adduct 12 [16]: 5.1%
formation of 12 ([17]; t0h): 65.7%
formation of 8 ([17]; t24h): 2.1%
formation of 12 ([17]; t24h): 68.0%
